# According to patent US11414385B2, “Compounds and methods for treating, detecting, and identifying compounds to treat apicomplexan parasitic diseases” (The University of Chicago, priority 2015, dated 2022):
# Like-named read-outs stand apart in the source and are kept apart here.
# How the values were obtained:
# [1] = test system: T. gondii bradyzoites (EGS strain); experiment: EGS strain bradyzoite assay (cysts in HFF, dolichos/BAG1 staining); assay type: cell-based, Toxoplasma gondii; conditions: for IC50: EGS strain
# Protocol: (§1) HFF cells were grown in IMDM (1×, [+] glutamine, [+] 25 mM HEPES, [+] Phenol red, 10% FBS, [Gibco, Denmark]) on removable, sterile glass disks in the bottom of a clear, flat-bottomed 24-well plate. Cultures were infected with 3×10^4 parasites (EGS strain) per well, in 0.5 mL media and plate was returned to incubator at 37° C. overnight. The following day, the media was removed and clear IMDM and compounds were added to making various concentrations of the drug, to a total volume of 0.5 mL. Two wells were filled with media only, as a control. Plates were returned to the 37° C. incubator for 72 hours.
# Efficacy was determined following fixation. Staining was used to determine the numbers of cysts in cultures without and with treatment with the test compounds. Cells were fixed using 4% paraformaldehyde and stained with Fluorescein-labeled Dolichos Biflorus Agglutinin, DAPI, and anti-BAG1, and anti-SAG1. Disks were removed and mounted onto glass slides and visualized using microscopy (Nikon Tl7). Slides were also scanned using a CRi Pannoramic Scan Whole Slide Scanner and viewed using Panoramic Viewer Software.
# as §1, with “[gibco,” for “[Gibco,”, “2” for “Two”, “72 hours, and checked once every 24” for “72”, “hours. If tachyzoites were visible in the control before 72 hours, the cells were fixed and stained.” for “hours.”
# Cells were fixed using 4% paraformaldehyde and stained with Fluorescein-labeled Dolichos Biflorus Agglutinin, DAPI, and BAG1. Disks were removed and mounted onto glass slides and visualized using microscopy (Nikon Tl7). Slides were scanned using a CRi Pannoramic Scan Whole Slide Scanner and viewed using Panoramic Viewer Software. Effects of the compounds were quantified by counting cysts in the controls and treated cells. Cysts and persisting organisms were counted in a representative field of view and then multiplied by a factor determined by the total area of the disk in order to estimate the number of cysts and organisms in each condition.
# HFF cells were grown in IMDM (1×, [+] glutamine, [+] 25 mM HEPES, [+] Phenol red, 10% FBS, [gibco, Denmark]) on removable, sterile glass disks in the bottom of a clear, flat-bottomed 24-well plate. Cultures were infected with 3×10^4 parasites (EGS strain) per well, in 0.5 mL media and plate was returned to incubator at 37° C. overnight. The following day, the media was removed and clear IMDM and compounds were added to making various concentrations of the drug, to a total volume of 0.5 mL. 2 wells were filled with media only, as a control. Plates were returned to the 37° C. incubator for 72 hours, and checked once every 24 hours. If tachyzoites were visible in the control before 72 hours, the cells were fixed and stained. Cells were fixed using 4% paraformaldehyde and stained with Fluorescein-labeled Dolichos Biflorus Agglutinin, DAPI, and BAG1. Disks were removed and mounted onto glass slides and visualized using microscopy (Nikon Tl7). Slides were scanned using a CRi Pannoramic Scan Whole Slide Scanner and viewed using Panoramic Viewer Software. Effects of the compounds were quantified by counting cysts in the controls and treated cells. Cysts and persisting organisms were counted in a representative field of view and then multiplied by a factor determined by the total area of the disk in order to estimate the number of cysts and organisms in each condition. Data was collected using Gen5 software. IC50 was calculated by graphical analysis in Excel.
# [2] = test system: P. falciparum strains D6, TM91-C235, W2, C2B; experiment: Malaria SYBR Green I-Based Fluorescence (MSF) Assay; assay type: cell-based, Plasmodium falciparum; conditions: Plasmodium falciparum
# How it was run: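 Growth inhibition of P. falciparum strains in a microtiter drug sensitivity assay, with parasite proliferation measured as malarial DNA content via SYBR Green I intercalation fluorescence. Strains: drug-sensitive D6, multi-drug resistant TM91-C235, chloroquine-resistant W2, and atovaquone-resistant C2B.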
# [3] = Aqueous kinetic solubility pH 7.4; assay type: physicochemical; conditions: for solubility kinetic: PBS pH 7.4
# [4] = Microsomal metabolic stability, mouse; assay type: in vitro ADME; conditions: for half-life: mouse, liver microsomes
# [5] = D6 strain, read-out: Pf D6 IC50
# [6] = PBS, pH 7.4, aqueous buffer, kinetic from dmso stock
structure (smiles),measurement,setting,value
"Cc1[nH]c2c(c(=O)c1-c1ccc(Oc3ccc(OC(F)(F)F)cc3)cc1)CCCC2 [JAG21, 2-methyl-3-(4-(4-(trifluoromethoxy)phenoxy)phenyl)-5,6,7,8-tetrahydroquinolin-4(1H)-one]",reduction in the number of true cysts and small organisms,"[1]; 1 μM and 10 μM, EGS",statistically significant reduction
same,IC90,"[1]; Toxoplasma gondii, read-out: IC 90 against bradyzoites",500 nM
same,Pseudocysts,"[1]; part a, 1 μM",29 ± 6
same,Small organisms,"[1]; part a, 1 μM",90.5 ± 33.5
same,True Cysts,"[1]; part a, 1 μM",0.5 ± 0.6
same,Pseudocysts,"[1]; part a, 10 μM",25.5 ± 5.1
same,Small organisms,"[1]; part a, 10 μM",73.25 ± 30.9
same,True Cysts,"[1]; part a, 10 μM",0.25 ± 0.5
same,Pseudocysts,"[1]; part b, 1 μM",2955
same,Small organisms,"[1]; part b, 1 μM",9734
same,True Cysts,"[1]; part b, 1 μM",54
same,Pseudocysts,"[1]; part b, 10 μM",2638
same,Small organisms,"[1]; part b, 10 μM",7309
same,True Cysts,"[1]; part b, 10 μM",22
same,IC50,[2]; [5],14.3 nM
same,IC50,"[2]; including all drug resistant strains, read-out: inhibitor of Plasmodium falciparum",40 to 65 nM
same,solubility kinetic,[3]; [6],7 µM
same,Mouse microsomal stability T1/2,[4],101 min
Cc1[nH]c2c(c(=O)c1-c1ccc(Oc3ccccc3)cc1)CCCC2 [MJM170],reduction of EGS bradyzoites in cysts in vitro,[1],markedly reduces EGS bradyzoites in cysts
same,IC50,"[1]; Toxoplasma gondii, read-out: Brady IC50",1000 to 10000 nM
same,IC50,"[1]; Toxoplasma gondii, read-out: T. gondii Bradyzoite IC50",4000 nM
same,IC50,"[2]; C2B strain (multi-drug resistant, atovaquone resistant), read-out: P. falciparum IC50",10 nM
same,IC50,"[2]; C2B strain, read-out: SYBR Green C2B IC50",10 nM
same,IC50,"[2]; D6 strain (drug sensitive), read-out: P. falciparum IC50",10 nM
same,IC50,[2]; [5],10 nM
same,IC50,"[2]; D6 strain, read-out: SYBR Green D6 IC50",10 nM
same,IC50,"[2]; TM91C235 strain (multi-drug resistant), read-out: P. falciparum IC50",30 nM
same,IC50,"[2]; TM91C235 strain, read-out: SYBR Green C235 IC50",30 nM
same,IC50,"[2]; W2 strain (chloroquine resistant), read-out: P. falciparum IC50",30 nM
same,IC50,"[2]; W2 strain, read-out: SYBR Green W2 IC50",30 nM
same,IC50,"[2]; wild type and multi-drug resistant, all strains, read-out: IC50 against P. falciparum",< 30 nM
same,solubility kinetic,[3],1.97 µM
same,solubility kinetic,[3]; [6],2 µM
same,solubility,"[3]; aqueous buffer, kinetic from dmso stock, 100 mM Phosphate Buffer (pH 7.4)",1.97 µM
same,improved aqueous kinetic solubility (pH 7.4) over ELQ 271,[3]; relative to ELQ 271,10 fold
same,Mouse microsomal stability T1/2,[4],21.0 min
same,half-life,[4]; read-out: Mouse liver microsomes T1/2,21 min
same,half-life,[4]; read-out: Mouse microsomal stability T1/2,20 min
